From patent US20160237044A1, “SUBSTITUTED PHENYLALANINE DERIVATIVES” (BAYER PHARMA AKTIENGESELLSCHAFT, priority 2013, published 2016)
Structures can show the parent of a compound that is named as a salt. Where two headings read alike, the source gives them in different places.

Assays:
[1] = target: T1, human factor XIa (Homo sapiens, UniProt P03951); experiment: Measurement of FXIa inhibition (fluorogenic peptide substrate Boc-Glu(OBzl)-Ala-Arg-AMC); type: biochemical
T1 construct: purchased Kordia
Protocol: a.1) Measurement of FXIa Inhibition
The factor XIa inhibition of the substances according to the invention is determined using a biochemical test system which utilizes the reaction of a peptidic factor XIa substrate to determine the enzymatic activity of human factor XIa. Here, factor XIa cleaves from the peptic factor XIa substrate the C-terminal aminomethylcoumarin (AMC), the fluorescence of which is measured. The determinations are carried out in microtitre plates.
In each case 1 μl of the diluted substance solutions is placed into the wells of white microtitre plates from Greiner (384 wells). […] After 15 min of incubation, the enzyme reaction is started by addition of 20 μl of the factor XIa substrate Boc-Glu(OBzl)-Ala-Arg-AMC dissolved in assay buffer (10 μM in assay buffer) from Bachem, the mixture is incubated at room temperature (22° C.) for 30 min and fluorescence is then measured (excitation: 360 nm, emission: 460 nm). The measured emissions of the test batches with test substance are compared to those of control batches without test substance (only dimethyl sulphoxide instead of test substance in dimethyl sulphoxide), and IC50 values are calculated from the concentration/activity relationships.

[2] = test system: plasma; experiment: Determination of anticoagulatory activity: activated partial thromboplastin time (aPTT) in plasma; type: biochemical, human; conditions: concentration of test substance which brings about a 1.5-fold extension of the aPTT, C.K. Prest kit, 37° C.
Protocol: a.4) Determination of Anticoagulatory Activity
The anticoagulatory activity of the test substances is determined in vitro in human and animal plasma (for example mouse, rat, rabbit, pig and dog plasma). To this end, blood is drawn off in a mixing ratio of sodium citrate/blood of 1:9 using a 0.11 molar sodium citrate solution as receiver. Immediately after the blood has been drawn off, it is mixed thoroughly and centrifuged at about 4000 g for 15 minutes. The supernatant is pipetted off.
The activated partial thromboplastin time (aPTT) is determined in the presence of varying concentrations of test substance or the corresponding solvent using a commercial test kit (C.K. Prest from Diagnostica Stago). The test compounds are incubated with the plasma and the PTT reagent (cephalin, kaolin) at 37° C. for 3 minutes. Coagulation is then started by addition of a 25 mM aqueous calcium chloride solution, and the time when coagulation occurs is determined. The concentration of test substance which brings about a 1.5-fold extension of the aPTT is determined.

[3] = factor XIa from Kordia, 15 min preincubation, 30 min at 22° C., fluorescence, read-out: IC50

T1 sequence (P03951 388-625 limits assumed): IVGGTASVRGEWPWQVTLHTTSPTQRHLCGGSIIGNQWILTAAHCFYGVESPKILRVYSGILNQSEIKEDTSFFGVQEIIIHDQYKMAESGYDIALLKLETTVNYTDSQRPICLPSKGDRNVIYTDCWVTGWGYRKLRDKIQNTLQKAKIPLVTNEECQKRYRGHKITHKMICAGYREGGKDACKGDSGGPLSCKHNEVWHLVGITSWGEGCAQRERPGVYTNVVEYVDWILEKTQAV
T1 sequence (P03951 19-387 partner limits assumed): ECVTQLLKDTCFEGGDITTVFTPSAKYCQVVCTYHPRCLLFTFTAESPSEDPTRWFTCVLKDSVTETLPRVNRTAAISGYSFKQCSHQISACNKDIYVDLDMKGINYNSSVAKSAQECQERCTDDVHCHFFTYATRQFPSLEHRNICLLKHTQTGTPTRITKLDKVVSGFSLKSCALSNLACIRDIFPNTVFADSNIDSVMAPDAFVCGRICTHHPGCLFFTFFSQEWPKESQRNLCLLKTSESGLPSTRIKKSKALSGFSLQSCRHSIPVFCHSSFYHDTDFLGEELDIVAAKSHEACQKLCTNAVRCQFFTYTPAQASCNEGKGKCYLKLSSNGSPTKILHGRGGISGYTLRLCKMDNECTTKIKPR

| SMILES | IC50 [1, 3] [nM] | Concentration for 1.5-fold aPTT extension [2] [µmol/L] | IC50 [1] [nM] |
| --- | --- | --- | --- |
| COC(=O)c1ccc(-c2ccc(C[C@H](NC(=O)[C@H]3CC[C@H](CN)CC3)C(=O)Nc3ccc(-c4nn[nH]n4)cc3)cc2)cc1 [Example 7, Methyl 4′-[(2S)-2-({[trans-4-(aminomethyl)cyclohexyl]carbonyl}amino)-3-oxo-3-{[4-(2H-tetrazol-5-yl)phenyl]amino}propyl]biphenyl-4-carboxylic acid hydrochloride] | 3.6 |  |  |
| COCCOc1ccc(-c2ccc(C[C@H](NC(=O)[C@H]3CC[C@H](CN)CC3)C(=O)Nc3ccc(-c4nn[nH]n4)cc3)cc2)cc1 [Example 3, trans-4-(Aminomethyl)-N-[(2S)-3-[4′-(2-methoxyethoxy)biphenyl-4-yl]-1-oxo-1-{[4-(2H-tetrazol-5-yl)phenyl]amino}propan-2-yl]cyclohexanecarboxamide hydrochloride] | 8.1 |  |  |
| COC(=O)c1ccc(-c2ccc(C[C@H](NC(=O)[C@H]3CC[C@H](CN)CC3)C(=O)Nc3ccc(-c4nn[nH]n4)cc3)cc2)c(Cl)c1.Cl [Example 11, Methyl 4′-[(2S)-2-({[trans-4-(aminomethyl)cyclohexyl]carbonyl}amino)-3-oxo-3-{[4-(2H-tetrazol-5-yl)phenyl]amino}propyl]-2-chlorobiphenyl-4-carboxylate hydrochloride] | 1.9 | 0.49 |  |
| NC[C@H]1CC[C@H](C(=O)N[C@@H](Cc2ccc(-c3ccc(N4CCOCC4)cc3)cc2)C(=O)Nc2ccc(-c3nn[nH]n3)cc2)CC1 [Example 5, trans-4-(Aminomethyl)-N-[(2S)-3-[4′-(morpholin-4-yl)biphenyl-4-yl]-1-oxo-1-{[4-(2H-tetrazol-5-yl)phenyl]amino}propan-2-yl]cyclohexanecarboxamide hydrochloride] |  |  | 5.7 |
| Cc1cc(NC(=O)CNC(=O)CNC(=O)CN)ccc1-c1ccc(C[C@H](NC(=O)[C@H]2CC[C@H](CN)CC2)C(=O)Nc2ccc(-c3nn[nH]n3)cc2)cc1 [Example 9, Glycylglycyl-N-{4′-[(2S)-2-({[trans-4-(aminomethyl)cyclohexyl]carbonyl}amino)-3-oxo-3-{[4-(2H-tetrazol-5-yl)phenyl]amino}propyl]-2-methylbiphenyl-4-yl}glycinamide hydrochloride] | 8.4 |  |  |
| CN1CCN(c2ccc(-c3ccc(C[C@H](NC(=O)[C@H]4CC[C@H](CN)CC4)C(=O)Nc4ccc(-c5nn[nH]n5)cc4)cc3)cc2)CC1 [Example 4, trans-4-(Aminomethyl)-N-[(2S)-3-[4′-(4-methylpiperazin-1-yl)biphenyl-4-yl]-1-oxo-1-{[4-(2H-tetrazol-5-yl)phenyl]amino}propan-2-yl]cyclohexanecarboxamide hydrochloride] | 18 |  |  |
| NC[C@H]1CC[C@H](C(=O)N[C@@H](Cc2ccc(-c3ccc(N4CCNCC4)cc3)cc2)C(=O)Nc2ccc(-c3nn[nH]n3)cc2)CC1 [Example 2, trans-4-(Aminomethyl)-N-[(2S)-1-oxo-3-[4′-(piperazin-1-yl)biphenyl-4-yl]-1-{[4-(2H-tetrazol-5-yl)phenyl]amino}propan-2-yl]cyclohexanecarboxamide hydrochloride] | 4.3 |  |  |
| NC[C@H]1CC[C@H](C(=O)N[C@@H](Cc2ccc(-c3ccc(S(=O)(=O)NC4CCNCC4)cc3C(F)(F)F)cc2)C(=O)Nc2ccc(-c3nn[nH]n3)cc2)CC1 [Example 8, trans-4-(Aminomethyl)-N-[(2S)-1-oxo-3-[4′-(piperidin-4-ylsulphamoyl)-2′-(trifluoromethyl)biphenyl-4-yl]-1-{[4-(2H-tetrazol-5-yl)phenyl]amino}propan-2-yl]cyclohexanecarboxamide hydrochloride] | 1 | 0.08 |  |
| Cc1cc(C#N)ccc1-c1ccc(C[C@H](NC(=O)[C@H]2CC[C@H](CN)CC2)C(=O)Nc2ccc(-c3nn[nH]n3)cc2)cc1 [Example 23, trans-4-(Aminomethyl)-N-[(2S)-3-(4′-cyano-2′-methylbiphenyl-4-yl)-1-oxo-1-{[4-(2H-tetrazol-5-yl)phenyl]amino}propan-2-yl]cyclohexanecarboxamide hydrochloride] | 1.1 | 0.27 |  |
| NC[C@H]1CC[C@H](C(=O)N[C@@H](Cc2ccc(-c3ccc(S(=O)(=O)NCCO)cc3)cc2)C(=O)Nc2ccc(-c3nnc(Cl)[nH]3)cc2)CC1 [Example 19, trans-4-(Aminomethyl)-N-[(2S)-1-{[4-(5-chloro-4H-1,2,4-triazol-3-yl)phenyl]amino}-3-{4′-[(2-hydroxyethyl)sulphamoyl]biphenyl-4-yl}-1-oxopropan-2-yl]cyclohexanecarboxamide hydrochloride] | 2.3 | 0.16 |  |
| NC[C@H]1CC[C@H](C(=O)N[C@@H](Cc2ccc(-c3ccc(S(N)(=O)=O)cc3)cc2)C(=O)Nc2ccc(-c3nnc(Cl)[nH]3)cc2)CC1 [Example 22, trans-4-(Aminomethyl)-N-[(2S)-1-{[4-(3-chloro-4H-1,2,4-triazol-5-yl)phenyl]amino}-1-oxo-3-(4′-sulphamoylbiphenyl-4-yl)propan-2-yl]cyclohexanecarboxamide hydrochloride] | 1.5 | 0.25 |  |
| CC(=O)Nc1ccc(-c2ccc(C[C@H](NC(=O)[C@H]3CC[C@H](CN)CC3)C(=O)Nc3ccc(-c4nn[nH]n4)cc3)cc2)cc1F [Example 26, trans-N-[(2S)-3-(4′-Acetamido-3′-fluorobiphenyl-4-yl)-1-oxo-1-{[4-(2H-tetrazol-5-yl)phenyl]-amino}propan-2-yl]-4-(aminomethyl)cyclohexanecarboxamide hydrochloride] | 4.7 | 0.4 |  |
| CCN(CC)S(=O)(=O)c1ccc(-c2ccc(C[C@H](NC(=O)[C@H]3CC[C@H](CN)CC3)C(=O)Nc3ccc4c(=O)[nH][nH]c4c3)cc2)c(C)c1 [Example 17, trans-4-(Aminomethyl)-N-{(2S)-3-[4′-(diethylsulphamoyl)-2′-methylbiphenyl-4-yl]-1-oxo-1-[(3-oxo-2,3-dihydro-1H-indazol-6-yl)amino]propan-2-yl}cyclohexanecarboxamide hydrochloride] | 3.5 | 0.13 |  |
| Cc1cc(S(=O)(=O)NC(C)C)ccc1-c1ccc(C[C@H](NC(=O)[C@H]2CC[C@H](CN)CC2)C(=O)Nc2ccc3c(=O)[nH][nH]c3c2)cc1 [Example 14, trans-4-(Aminomethyl)-N-{(2S)-3-[4′-(isopropylsulphamoyl)-2′-methylbiphenyl-4-yl]-1-oxo-1-[(3-oxo-2,3-dihydro-1H-indazol-6-yl)amino]propan-2-yl}cyclohexanecarboxamide hydrochloride] | 3.2 |  |  |
| NC[C@H]1CC[C@H](C(=O)N[C@@H](Cc2ccc(-c3ccc(N4CCNCC4)cc3)cc2)C(=O)Nc2ccc(-c3noc(=O)[nH]3)cc2)CC1 [Example 6, trans-4-(Aminomethyl)-N-{(2S)-1-oxo-1-{[4-(5-oxo-4,5-dihydro-1,2,4-oxadiazol-3-yl)phenyl]amino}-3-[4′-(piperazin-1-yl)biphenyl-4-yl]propan-2-yl}cyclohexanecarboxamide hydrochloride] | 24 |  |  |
